# T1: SALL4 ZFC4 (human, UniProt Q9UJQ4)
# T1 sequence: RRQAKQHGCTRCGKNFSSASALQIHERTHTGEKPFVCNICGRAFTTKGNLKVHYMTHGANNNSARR
# B1: 12-mer TATTA SALL4 motif duplex (dsDNA)
# DNA 1: CGAAATATTAGC
# DNA 2: GCTAATATTTCG
# Experiments:
# SNU398 = test: cells; parameters: species or system SNU387, SNU398 and SNU387 isogenic lines; CellTiter-Glo luminescence viability dose response in 384-well plates, nonlinear regression; conditions: Homo sapiens, SNU-398; 72 h cell viability; read-out: EC50 / SNU398Hi
# Method: (§1) Empty vector, SALL4A, and SALL4B expressing isogenic cell lines were generated by transducing the SALL4 negative hepatocellular carcinoma SNU-387 cells with empty vector, SALL4A, or SALL4B FUW-Luc-mCh-puro lentiviral constructs. Cells were plated in 50 μl of RPMI culture media in 384-well white flat-bottom plates (Corning) and incubated at 37 °C in a humidified atmosphere of 5% CO2 overnight. Cell numbers per well were 1500 for SNU-398, and 750 for SNU-387 and SNU-387 isogenic lines. After overnight incubation, varying concentrations of compounds 1–80 were added to cells with multichannel electronic pipettes (Rainin). Cells were then incubated for 72 h at 37 °C in a humidified atmosphere of 5% CO2 before 10 μl of CellTiter-Glo reagent was added to the wells with the MultiFlo Microplate Dispenser (BioTek). Cells were incubated at room temperature for a minimum of 10 min, after which luminescence readings were recorded by an Infinite M1000 Microplate Reader (Tecan). Each data point was performed in n = 3 independent cell cultures. IC50 of compounds were determined using nonlinear regression fitting from Prism (GraphPad). Cell-based screening was next employed to evaluate the growth inhibitory activity of the test compounds against SALL4 expressing malignant cells. SNU398, a liver cancer cell line with high endogenous levels of SALL4, and SNU387, a liver cancer cell line with undetectable levels of SALL4, were used for comparison. Cells were incubated with the test compound at 1 μM for 72 h, after which cell viability was assessed. […] Next, we carried out dose escalation studies on all SH compounds to deduce their EC50 values on SNU387 and SNU398. In order to interrogate the effects of compounds targeting SALL4, we created isogenic cells by overexpressing SALL4A (SNU387-TgSALL4A) or SALL4B (SNU387-TgSALL4B) in SNU387 cells (Tan et al, [2019]) (Fig. 2B, and Dataset EV4). The EC50 of SH2, SH6, and SH7 in SALL4 high SNU398 cells were 0.4 μM, 0.5 μM, and 0.3 μM, respectively. In contrast, the EC50 values of the same compounds were more than 10 μM on SALL4 low SNU387 cells.
# SNU387-TgSALL4B = test system: T2, SNU387-TgSALL4B; test: cells; parameters: species or system SNU398 and SNU387 isogenic lines; CellTiter-Glo luminescence viability dose response in 384-well plates, nonlinear regression; conditions: 72 h cell viability; read-out: EC50 / SNU387-TgSALL4BBHi
# T2 construct: SNU387 overexpressing SALL4B (FUW-Luc-mCh-puro)
# Method: as §1
# SNU387-TgSALL4A = test system: T3, SNU387-TgSALL4A; test: cells; parameters: species or system SNU398 and SNU387 isogenic lines; CellTiter-Glo luminescence viability dose response in 384-well plates, nonlinear regression; conditions: 72 h cell viability; read-out: EC50 / SNU387-TgSALL4AAHi
# T3 construct: SNU387 overexpressing SALL4A (FUW-Luc-mCh-puro)
# Method: as §1
# [1] = test system: T4, SNU387-Ev (SNU387 transduced with empty vector); test: cells; parameters: species or system SNU398 and SNU387 isogenic lines; CellTiter-Glo luminescence viability dose response in 384-well plates, nonlinear regression; conditions: Homo sapiens, SNU-387; 72 h cell viability; read-out: EC50 / SNU387-EvLo
# T4 construct: empty vector FUW-Luc-mCh-puro
# Method: as §1
# SNU387 = test: cells; parameters: species or system SNU398 and SNU387 isogenic lines; CellTiter-Glo luminescence viability dose response in 384-well plates, nonlinear regression; conditions: Homo sapiens, SNU-387; 72 h cell viability; read-out: EC50 / SNU387Lo
# Method: as §1
# CRBN (cereblon) = target: T5, CRBN (cereblon) (Homo sapiens, UniProt Q96SW2); test: in-cell CETSA only ([…] SH6); format: cell-based
# T5 construct: endogenous CRBN in SNU398 cells
# hERG potassium channel = target: T6, hERG potassium channel (Homo sapiens, UniProt Q12809); test: hERG channel block concentration-response; format: cell-based
# T6 construct: gene KCNH2
# CUL4A = target: T7, CUL4A (Homo sapiens, UniProt Q13619); test: SPR (Biacore, immobilized CUL4A); supported by in-cell CETSA; format: binding
# T7 construct: Recombinant CUL4A (Creative Biomart CUL4A-690H)
# SNU387-TgSALL4BBHi = test system: T8, SNU387-TgSALL4BBHi; test: cells; parameters: species or system SNU-387, SNU-398 and SNU-387 isogenic lines; CellTiter-Glo luminescence cell viability, dose-response EC50; conditions: 72 h
# T8 construct: SNU-387 overexpressing SALL4B
# Method: as §1
# SNU387-EvLo = test system: T9, SNU387-EvLo; test: cells; parameters: species or system SNU-387, SNU-398 and SNU-387 isogenic lines; CellTiter-Glo luminescence cell viability, dose-response EC50; conditions: 72 h
# T9 construct: SNU-387 empty vector control
# Method: as §1
# SNU387Lo = test system: T10, SNU387Lo; test: cells; parameters: species or system SNU-387, SNU-398 and SNU-387 isogenic lines; CellTiter-Glo luminescence cell viability, dose-response EC50; conditions: 72 h
# T10 construct: SNU-387 hepatocellular carcinoma, SALL4 low
# Method: as §1
# SNU387-TgSALL4AAHi = test system: T11, SNU387-TgSALL4AAHi; test: cells; parameters: species or system SNU-387, SNU-398 and SNU-387 isogenic lines; CellTiter-Glo luminescence cell viability, dose-response EC50; conditions: 72 h
# T11 construct: SNU-387 overexpressing SALL4A
# Method: as §1
# SNU398Hi = test system: T12, SNU398Hi; test: cells; parameters: species or system SNU-387, SNU-398 and SNU-387 isogenic lines; CellTiter-Glo luminescence cell viability, dose-response EC50; conditions: 72 h
# T12 construct: SNU-398 hepatocellular carcinoma, SALL4 high
# Method: as §1
# SALL4 ZFC4 = target: T1, SALL4 ZFC4; test: X-ray crystallography (2.1 A); Zn2+; 500 uM protein with 750 uM DNA; Crystallization: protein in 20 mM HEPES pH 7.5, 200 mM NaCl, 0.5 mM TCEP, 1 mM DTT, 10 uM ZnCl2; mixed with equal volume of 30% PEG3350, 0.04 M NH4SO4, BisTris; conditions: protein: recombinant; tags: N-terminal GST, removed with thrombin (pGEX4T1); chain copies: 2; blunt
# T5 sequence (Q96SW2 whole entry): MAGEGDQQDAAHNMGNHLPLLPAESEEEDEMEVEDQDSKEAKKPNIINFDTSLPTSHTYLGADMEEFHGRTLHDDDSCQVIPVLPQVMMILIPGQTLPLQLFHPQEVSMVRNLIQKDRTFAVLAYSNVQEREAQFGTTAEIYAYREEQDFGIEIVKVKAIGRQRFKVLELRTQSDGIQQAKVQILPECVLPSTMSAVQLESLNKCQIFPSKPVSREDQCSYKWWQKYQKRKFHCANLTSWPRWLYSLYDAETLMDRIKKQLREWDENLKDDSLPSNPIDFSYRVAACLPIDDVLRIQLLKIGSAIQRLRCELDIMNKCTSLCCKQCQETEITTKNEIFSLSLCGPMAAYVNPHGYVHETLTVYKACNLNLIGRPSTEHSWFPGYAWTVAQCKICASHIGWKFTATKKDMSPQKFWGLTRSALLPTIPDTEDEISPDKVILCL
# T7 sequence (Q13619 whole entry): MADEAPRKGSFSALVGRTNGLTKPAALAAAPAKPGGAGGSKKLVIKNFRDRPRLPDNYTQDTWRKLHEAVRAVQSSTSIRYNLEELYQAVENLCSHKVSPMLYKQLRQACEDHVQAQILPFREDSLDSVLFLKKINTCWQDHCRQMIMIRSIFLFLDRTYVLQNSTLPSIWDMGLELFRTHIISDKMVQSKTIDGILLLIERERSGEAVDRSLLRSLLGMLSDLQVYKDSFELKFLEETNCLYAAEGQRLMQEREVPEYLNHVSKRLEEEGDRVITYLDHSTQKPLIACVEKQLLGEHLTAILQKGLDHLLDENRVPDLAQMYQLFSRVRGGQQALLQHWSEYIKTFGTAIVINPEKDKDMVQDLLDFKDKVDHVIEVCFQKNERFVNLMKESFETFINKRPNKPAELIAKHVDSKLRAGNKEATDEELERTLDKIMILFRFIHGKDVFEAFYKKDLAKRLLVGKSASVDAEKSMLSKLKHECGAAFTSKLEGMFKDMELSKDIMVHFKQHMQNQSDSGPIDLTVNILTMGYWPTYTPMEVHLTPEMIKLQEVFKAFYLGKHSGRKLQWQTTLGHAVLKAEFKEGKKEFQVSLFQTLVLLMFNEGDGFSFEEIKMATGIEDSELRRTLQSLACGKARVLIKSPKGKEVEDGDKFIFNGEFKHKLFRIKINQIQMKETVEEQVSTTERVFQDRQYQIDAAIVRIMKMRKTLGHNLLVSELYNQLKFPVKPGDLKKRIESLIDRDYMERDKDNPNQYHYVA
# T6 sequence (Q12809 whole entry): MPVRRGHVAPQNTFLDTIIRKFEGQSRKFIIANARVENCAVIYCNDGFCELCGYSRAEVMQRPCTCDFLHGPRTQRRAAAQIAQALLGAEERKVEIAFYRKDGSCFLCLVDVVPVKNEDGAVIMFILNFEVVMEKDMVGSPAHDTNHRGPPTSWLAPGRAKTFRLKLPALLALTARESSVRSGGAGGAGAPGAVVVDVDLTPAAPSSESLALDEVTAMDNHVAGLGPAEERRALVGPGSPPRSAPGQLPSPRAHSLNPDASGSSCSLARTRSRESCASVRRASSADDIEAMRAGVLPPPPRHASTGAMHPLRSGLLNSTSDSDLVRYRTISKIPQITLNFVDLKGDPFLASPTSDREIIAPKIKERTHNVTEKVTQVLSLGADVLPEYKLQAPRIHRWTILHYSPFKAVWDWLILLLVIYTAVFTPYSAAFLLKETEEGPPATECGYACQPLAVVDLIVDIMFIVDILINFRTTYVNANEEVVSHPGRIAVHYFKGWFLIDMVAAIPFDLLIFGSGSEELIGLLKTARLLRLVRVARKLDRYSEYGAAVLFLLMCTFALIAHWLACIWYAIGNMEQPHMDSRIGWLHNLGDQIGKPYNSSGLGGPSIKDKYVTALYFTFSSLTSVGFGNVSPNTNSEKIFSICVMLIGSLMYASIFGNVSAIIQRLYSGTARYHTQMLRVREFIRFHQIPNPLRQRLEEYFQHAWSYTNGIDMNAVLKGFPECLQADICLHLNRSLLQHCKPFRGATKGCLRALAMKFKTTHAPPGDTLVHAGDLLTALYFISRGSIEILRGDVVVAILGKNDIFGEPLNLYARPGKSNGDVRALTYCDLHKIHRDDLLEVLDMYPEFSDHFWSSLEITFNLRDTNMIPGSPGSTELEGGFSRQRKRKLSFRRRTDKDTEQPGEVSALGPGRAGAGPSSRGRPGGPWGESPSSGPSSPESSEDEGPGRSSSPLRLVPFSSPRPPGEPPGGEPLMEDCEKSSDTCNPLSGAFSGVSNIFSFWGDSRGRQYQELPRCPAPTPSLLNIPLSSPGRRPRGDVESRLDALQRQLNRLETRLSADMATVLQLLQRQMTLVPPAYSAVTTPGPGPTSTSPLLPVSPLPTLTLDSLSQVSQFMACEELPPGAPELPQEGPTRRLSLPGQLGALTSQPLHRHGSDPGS
molecule,measurement,setting,value
COc1ccc(N)c(NC(=O)/C=C/c2cccnc2Nc2cc(OC)c(OC)c(OC)c2)c1 [SH2],EC50,SNU398,0.4 µM
same,EC50,SNU387-TgSALL4B,0.4 µM
same,EC50,SNU387-TgSALL4A,1.3 µM
same,EC50,[1],> 10 µM
same,EC50,SNU387,> 30 µM
"COc1cc(Nc2ncccc2/C=C/C(=O)Nc2ccc(Cl)cc2N)cc(OC)c1OC [SH6, (2E)-N-(2-amino-4-chlorophenyl)-3-[2-(3,4,5-trimethoxyanilino)pyridin-3-yl] prop-2-enamide]",in-cell CETSA only (50 μM SH6),CRBN (cereblon),"higher thermal stability (less unfolding) of CUL4, CRBN, and SALL4 (Fig. 3F), implicating these proteins as binding partners of SH6"
same,IC50,hERG potassium channel,22.2 µM
same,Kd,CUL4A,~89 µM
COc1cc(Nc2ncccc2/C=C/C(=O)Nc2cc(Cl)c(Cl)cc2N)cc(OC)c1OC [SH7],EC50,SNU398,0.3 µM
same,EC50,SNU387-TgSALL4B,0.3 µM
same,EC50,SNU387-TgSALL4A,1 µM
same,EC50,[1],> 10 µM
same,EC50,SNU387,~30 µM
Nc1ccc(F)cc1NC(=O)c1cccnc1Nc1ccc(F)cc1 [SH61],EC50,SNU387-TgSALL4BBHi,> 10 µM
same,EC50,SNU387-EvLo,> 10 µM
same,EC50,SNU387Lo,> 30 µM
same,EC50,SNU387-TgSALL4AAHi,> 10 µM
same,EC50,SNU398Hi,> 30 µM
Cc1cc(N)c(NC(=O)c2cccnc2Nc2ccc(Cl)cc2)cc1C [SH76],EC50,SNU398,~30 µM
same,EC50,SNU387,> 30 µM
Nc1ccc(F)cc1NC(=O)c1cccnc1Nc1ccc(Cl)cc1 [SH77],EC50,SNU398,~25 µM
same,EC50,SNU387,> 30 µM
Nc1ccc(Cl)cc1NC(=O)c1cccnc1Nc1ccc(Cl)cc1 [SH78],EC50,SNU398,~25 µM
same,EC50,SNU387,> 30 µM
Nc1cc(Cl)c(Cl)cc1NC(=O)c1cccnc1Nc1ccc(Cl)cc1 [SH79],EC50,SNU398,~20 µM
same,EC50,SNU387,> 30 µM
O=C(NO)c1cccnc1Nc1ccc(Cl)cc1 [SH80],EC50,SNU398,> 30 µM
same,EC50,SNU387,> 30 µM
B1,binding result,SALL4 ZFC4,binds
